Assays:
nigral THir neurons = test: Unbiased stereological counts of THir cells in the substantia nigra after striatal 6-OHDA; assay type: in vivo, Sprague Dawley rats; conditions: experiment 2, KO alone vs control pellet, 4 weeks post-6-OHDA
Experimental: Rats were anesthetized prior to surgery with Equi-Thesin (0.3 ml/100 g body weight i.p.; chloral hydrate 42.5 mg/ml+sodium pentobarbital 9.72 mg/ml), their heads shaved, and then they were placed in a stereotaxic frame. Their skin was swabbed with Betadyne followed by 70% ETOH. The scalp was then opened to expose the skull. Two 1 mm holes were drilled into the skull and rats were injected in two sites in the striatum with 6-OHDA (MP Biomedicals, Solon, Ohio; 5 μg/μl 6-OHDA in 0.2% ascorbic acid, 0.9% saline solution). The coordinates for these injections were AP −1.6 mm, ML +2.4 mm, DV −4.2 mm and AP −0.2 mm, +ML 2.6 mm, DV −7.0 mm. The needle was zeroed at the skull directly above the injection site in order to target the DV coordinate. For each injection, the needle was lowered slowly to the injection site and 1 minute elapsed before injection commenced, 6-OHDA was injected at 0.5 μl/minute and at the end of the injection the needle was held in place for an additional 2 minutes prior to retraction. The wound area was cleaned with Betadine solution and the scalp was closed with surgical wound clips. This lesion paradigm results in a progressive loss of TH phenotype and frank DA cell death.
Animals were deeply anesthetized (60 mg/kg, pentobarbital, i.p.) and perfused intracardially with warm 0.9% saline containing 1 ml/L 10,000 USP heparin followed by ice-cold 0.9% saline. For immunoshistochemistry brains were removed, post fixed for 24 hours in 4% paraformaldehyde and transferred to 30% sucrose in 0.1M PO4 buffer. For determination of purine levels brains were immediately removed and flash frozen in 3-methyl butane. Brains were stored at −80° C. until analysis.
Brains were frozen on dry ice and sectioned at a 40 μm thickness using a sliding microtome. Every sixth section through the SN was processed for labeling with antisera against TH. Following blocking in 10% normal goat serum, tissue was incubated in primary antisera directed against TH (Chemicon MAB318, mouse anti TH 1:4,000) overnight at room temperature. Following primary incubation, sections were incubated in biotinylated secondary antisera against mouse IgG (Chemicon AP124B, 1:400) followed by the Vector ABC detection kit employing horseradish peroxidase (Vector Laboratories, Burlingame, Calif.). Antibody labeling was visualized by exposure to 0.5 mg/ml 3,3′ diaminobenzidine (DAB) and 0.03% H2O2 in Tris buffer. Sections were mounted on subbed slides, dehydrated to xylene and coverslipped with Cytoseal (Richard-Allan Scientific, Waltham, Mass.).
Unbiased stereological counts of THir cells were performed using a BX52 Olympus microscope (Olympus America Inc.) interfaced with Microbrightfield stereological software and a Microfire CCD camera (Optronics, Goleta, Calif.). Utilizing 2 μm guard zones and a 50 μm×50 μm counting frame a grid size of 112 μm×183 μm was employed to assure that all coefficient of error values were ≦0.10. Using the optical fractionator principle, the regions of interest were individually outlined under a low magnification (1.25×). Using a 60× magnification lens with a 1.4 N/A the section thickness was empirically determined by first bringing the top of the section into focus and then using Microbrightfield software to step through the z-axis in 1 μm increments until the very bottom of the section was in focus. […]

striatal 6-OHDA infusion = conditions: peripheral adenosine, Wistar rats; cited from earlier work

O=C([O-])c1nc(=O)[nH]c(=O)[nH]1.[K+] [KO, potassium oxonate]
number of THir neurons in either the intact or lesioned SN (nigral THir neurons): no significant impact

Nc1ncnc2c1ncn2[C@@H]1O[C@H](CO)[C@@H](O)[C@H]1O [adenosine]
neuroprotection against striatal 6-OHDA infusion (striatal 6-OHDA infusion): functional neuroprotection

Reference: patent US20120128654A1, “Allantoin Administration for the Treatment of Neurodegenerative Disease and Neurotrauma” (UNIVERSITY OF CINCINNATI, priority 2009, published 2012)
